{"source": "patent US20230059136A1", "about": "“THE COMPOUNDS AND COMPOSITIONS FOR TREATING CONDITIONS ASSOCIATED WITH NLRP ACTIVITY” (Novartis AG, priority 2018, published 2023)", "key": {"[1]": {"test_system": "IL-1β production in PMA-differentiated THP-1 cells", "assay": "hTHP-1 assay containing 10% fetal bovine serum (IL-1β production, gramicidin-stimulated THP-1 cells)", "type": "cell-based, human", "description": "Activity key: <0.008 μM=“++++++”; ≥0.008 and <0.04 μM=“+++++”; ≥0.04 and <0.2 μM=“++++”; ≥0.2 and <1 μM=“+++”; ≥1 and <5 μM=“++”; ≥5 and <30 μM=“+”. ND=not determined."}, "[2]": {"test_system": "IL-1β production in PMA-differentiated THP-1 cells", "assay": "IL-1β production in PMA-differentiated THP-1 cells stimulated with gramicidin (hTHP-1 assay containing 2% fetal bovine serum)", "type": "cell-based, human", "outline": "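IL-1β release was read by HTRF on supernatants of 50,000 PMA-primed (20 ng/ml, 16-18 h) THP-1 cells/well in 2% FBS medium. Cells saw compound for 1 h (11-point titration from 100 μM, 0.37% DMSO) before a 2 h gramicidin (5 μM) challenge.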"}, "[3]": {"settings": "read-out: hTHP-1 IC50 in 10% FBS, average IC50"}, "[4]": {"settings": "read-out: hTHP-1 IC50 in 2% FBS, average IC50, hTHP-1 assay containing 2% fetal bovine serum"}, "[5]": {"settings": "Homo sapiens, THP-1, read-out: hTHP-1 IC50 in 10% FBS, average IC50"}, "[6]": {"settings": "Homo sapiens, THP-1, read-out: hTHP-1 IC50 in 2% FBS, average IC50, hTHP-1 assay containing 2% fetal bovine serum"}, "[7]": {"settings": "Homo sapiens, THP-1, Table B1, 2% fetal bovine serum, class symbols, read-out: hTHP-1 IC50 (Average IC50 of compounds in hTHP-1 assay)"}, "[8]": {"settings": "Homo sapiens, THP-1, Table B1, 2% fetal bovine serum, cells printed as numeric bound, read-out: hTHP-1 IC50 (Average IC50 of compounds in hTHP-1 assay)"}, "[9]": {"settings": "Table B1, 2% fetal bovine serum, class symbols, read-out: hTHP-1 IC50 (Average IC50 of compounds in hTHP-1 assay)"}}}
{"molecule": "CNCc1ccc(S(N)(=O)=NC(=O)Cc2c(-c3ccccc3)cc(F)cc2C(C)C)cc1", "note": "(single isomer, unassigned) [Example 413, (S) or (R)-N-(amino(4-((methylamino)methyl)phenyl) (oxo)-λ^6-sulfaneylidene)-2-(5-fluoro-3-isopropyl-[1,1′-biphenyl]-2-yl)acetamide]", "values": [{"measurement": "IC50", "setting": "[1]; [3]", "result": "5 to 30", "unit": "µM"}]}
{"molecule": "CC(C)c1c(CC(=O)N=S(N)(=O)c2sc(C(C)(C)O)cc2F)c2c(c3c1OC(F)(F)O3)CCC2", "note": "(racemic) [Example 408, (R) and (S)—N-(amino(3-fluoro-5-(2-hydroxypropan-2-yl)thiophen-2-yl)(oxo)-λ^6-sulfaneylidene)-2-(2,2-difluoro-4-isopropyl-7,8-dihydro-6H-indeno[4,5-d][1,3]dioxol-5-yl)acetamide]", "values": [{"measurement": "IC50", "setting": "[1]; [3]", "result": "0.2 to 1", "unit": "µM"}, {"measurement": "IC50", "setting": "[2]; [4]", "result": "0.2 to 1", "unit": "µM"}]}
{"molecule": "CC(C)c1cc2c(c(C(C)C)c1CC(=O)N=S(N)(=O)c1nn(C[C@@H](C)O)cc1F)OC(F)(F)O2", "note": "(single isomer, unassigned) [Example 415, (R) or (S)-N-(amino(4-fluoro-1-((R)-2-hydroxypropyl)-1H-pyrazol-3-yl)(oxo)-λ^6-sulfaneylidene)-2-(2,2-difluoro-4,6-diisopropylbenzo[d][1,3]dioxol-5-yl)acetamide]", "values": [{"measurement": "IC50", "setting": "[1]; [3]", "result": "0.04 to 0.2", "unit": "µM"}]}
{"molecule": "CC(C)c1c2c(c3c(c1CC(=O)N=S(N)(=O)c1sc(C(C)(C)O)cc1F)CCC3)COC2", "note": "(single isomer, unassigned) [Example 412, (S) or (R)-N-(amino(3-fluoro-5-(2-hydroxypropan-2-yl)thiophen-2-yl)(oxo)-λ^6-sulfaneylidene)-2-(4-isopropyl-3,6,7,8-tetrahydro-1H-indeno[4,5-c]furan-5-yl)acetamide]", "values": [{"measurement": "IC50", "setting": "[1]; Homo sapiens, THP-1, read-out: hTHP-1 IC50 in 10% FBS, average IC50, given as numeric bound", "result": "> 30", "unit": "µM"}, {"measurement": "IC50", "setting": "[2]; Homo sapiens, THP-1, read-out: hTHP-1 IC50 in 2% FBS, average IC50, hTHP-1 assay containing 2% fetal bovine serum, given as numeric bound", "result": "> 30", "unit": "µM"}]}
{"molecule": "CNCc1ccc(S(N)(=O)=NC(=O)Cc2c(-c3ccccc3)cc(F)cc2C(C)C)cc1", "note": "(single isomer, unassigned) [Example 414, (R) or (S)-N-(amino(4-((methylamino)methyl)phenyl) (oxo)-λ^6-sulfaneylidene)-2-(5-fluoro-3-isopropyl-[1,1′-biphenyl]-2-yl)acetamide]", "values": [{"measurement": "IC50", "setting": "[1]; [3]", "result": "0.2 to 1", "unit": "µM"}]}
{"molecule": "CC(C)c1c(CC(=O)N=S(N)(=O)c2sc(C(C)(C)O)cc2F)c2c(c3c1OC(F)(F)O3)CCC2", "note": "(racemic) [Example 407, (R) and (S)—N-(amino(3-fluoro-5-(2-hydroxypropan-2-yl)thiophen-2-yl)(oxo)-λ^6-sulfaneylidene)-2-(2,2-difluoro-4-isopropyl-7,8-dihydro-6H-indeno[4,5-d][1,3]dioxol-5-yl)acetamide]", "values": [{"measurement": "IC50", "setting": "[1]; [3]", "result": "5 to 30", "unit": "µM"}, {"measurement": "IC50", "setting": "[2]; [4]", "result": "5 to 30", "unit": "µM"}]}
{"molecule": "CC(C)c1cc2c(c(C(C)C)c1CC(=O)N=S(N)(=O)c1nn(CCO)cc1F)OC(F)(F)O2", "note": "(racemic) [Example 405, (R) and (S)—N-(amino(4-fluoro-1-(2-hydroxyethyl)-1H-pyrazol-3-yl)(oxo)-λ^6-sulfaneylidene)-2-(2,2-difluoro-4,6-diisopropylbenzo[d][1,3]dioxol-5-yl)acetamide]", "values": [{"measurement": "IC50", "setting": "[1]; [3]", "result": "0.04 to 0.2", "unit": "µM"}, {"measurement": "IC50", "setting": "[2]; [4]", "result": "0.2 to 1", "unit": "µM"}]}
{"molecule": "CC(C)c1cc2c(c(C(C)C)c1CC(=O)N=S(N)(=O)c1nn(C[C@@H](C)O)cc1F)OC(F)(F)O2", "note": "(single isomer, unassigned) [Example 416, (S) or (R)-N-(amino(4-fluoro-1-((R)-2-hydroxypropyl)-1H-pyrazol-3-yl)(oxo)-λ^6-sulfaneylidene)-2-(2,2-difluoro-4,6-diisopropylbenzo[d][1,3]dioxol-5-yl)acetamide]", "values": [{"measurement": "IC50", "setting": "[1]; [3]", "result": "5 to 30", "unit": "µM"}]}
{"molecule": "CC(C)c1cccc(C(C)C)c1CC(=O)N=S(N)(=O)c1ccc(CCNC(=O)CCCc2ccccc2)cc1", "note": "(centres unmarked) [Compound 409]", "values": [{"measurement": "IC50", "setting": "[1]; [5]", "result": "0.2 to 1", "unit": "µM"}, {"measurement": "IC50", "setting": "[2]; [6]", "result": "1 to 5", "unit": "µM"}]}
{"molecule": "CC(C)c1c2c(c3c(c1CC(=O)N=S(N)(=O)c1sc(C(C)(C)O)cc1F)CCC3)COC2", "note": "(single isomer, unassigned) [Example 411, (R) or (S)-N-(amino(3-fluoro-5-(2-hydroxypropan-2-yl)thiophen-2-yl)(oxo)-λ^6-sulfaneylidene)-2-(4-isopropyl-3,6,7,8-tetrahydro-1H-indeno[4,5-c]furan-5-yl)acetamide]", "values": [{"measurement": "IC50", "setting": "[1]; [5]", "result": "0.2 to 1", "unit": "µM"}, {"measurement": "IC50", "setting": "[2]; [6]", "result": "0.2 to 1", "unit": "µM"}]}
{"molecule": "CC(C)c1cc2c(c(C(C)C)c1CC(=O)N=S(N)(=O)c1nn(CCO)cc1F)OC(F)(F)O2", "note": "(racemic) [Example 406, (R) and (S)—N-(amino(4-fluoro-1-(2-hydroxyethyl)-1H-pyrazol-3-yl)(oxo)-λ^6-sulfaneylidene)-2-(2,2-difluoro-4,6-diisopropylbenzo[d][1,3]dioxol-5-yl)acetamide]", "values": [{"measurement": "IC50", "setting": "[1]; [3]", "result": "1 to 5", "unit": "µM"}, {"measurement": "IC50", "setting": "[2]; [4]", "result": "5 to 30", "unit": "µM"}]}
{"molecule": "CC(C)c1cc2c(c(C(C)C)c1CC(=O)N=S(N)(=O)c1cnc(C(C)(C)O)s1)COC2=O", "note": "(centres unmarked) [Example 256, N-(amino(2-(2-hydroxypropan-2-yl)thiazol-5-yl) (oxo)-λ^6-sulfaneylidene)-2-(4,6-diisopropyl-1-oxo-1,3-dihydroisobenzofuran-5-yl)acetamide]", "values": [{"measurement": "IC50", "setting": "[2]; [7]", "result": "5 to 30", "unit": "µM"}]}
{"molecule": "CC(C)c1cc2c(c(C(C)C)c1CC(=O)N=S(N)(=O)c1cnc(C(C)(C)O)s1)COC2=O", "note": "(single isomer, unassigned) [Example 318, (S) or (R)-N-(amino(2-(2-hydroxypropan-2-yl)thiazol-5-yl)(oxo)-λ^6-sulfaneylidene)-2-(4,6-diisopropyl-1-oxo-1,3-dihydroisobenzofuran-5-yl)acetamide]", "values": [{"measurement": "IC50", "setting": "[2]; [8]", "result": "> 30", "unit": "µM"}]}
{"molecule": "CC(C)c1cc(F)cc(C(C)C)c1CC(=O)N=[S@](=O)(NC#N)c1sc(C(C)(C)O)nc1CO", "note": "[Example 369, (S)-N-(cyanamido(4-(hydroxymethyl)-2-(2-hydroxypropan-2-yl)thiazol-5-yl)(oxo)-λ^6-sulfaneylidene)-2-(4-fluoro-2,6-diisopropylphenyl)acetamide]", "values": [{"measurement": "IC50", "setting": "[2]; Homo sapiens, THP-1, Table B2, 2% fetal bovine serum, class symbols, read-out: hTHP-1 IC50 (Average IC50 of compounds in hTHP-1 assay)", "result": "5 to 30", "unit": "µM"}]}
{"molecule": "CC(C)c1cc2c(c(C(C)C)c1CC(=O)N=S(N)(=O)c1cnc(C(C)(C)O)s1)COC2=O", "note": "(single isomer, unassigned) [Example 317, (R) or (S)-N-(amino(2-(2-hydroxypropan-2-yl)thiazol-5-yl)(oxo)-λ^6-sulfaneylidene)-2-(4,6-diisopropyl-1-oxo-1,3-dihydroisobenzofuran-5-yl)acetamide]", "values": [{"measurement": "IC50", "setting": "[2]; [7]", "result": "1 to 5", "unit": "µM"}]}
{"molecule": "CC(C)c1cc(CCC2CCCCC2)cc(C(C)C)c1CC(=O)N=S(N)(=O)c1cc(C(C)(C)O)n(-c2ccccc2)n1", "note": "(single isomer, unassigned) [Example 281, (R) or (S)-N-(amino(5-(2-hydroxypropan-2-yl)-1-phenyl-1H-pyrazol-3-yl)(oxo)-λ^6-sulfaneylidene)-2-(4-(2-cyclohexylethyl)-2,6-diisopropylphenyl) acetamide]", "values": [{"measurement": "IC50", "setting": "[2]; [7]", "result": "5 to 30", "unit": "µM"}]}
{"molecule": "CC(C)c1cc(-c2ccc3ccccc3c2)cc(C(C)C)c1CC(=O)N=[S@](=O)(NC#N)c1cnc(C(C)(C)O)s1", "note": "[Example 345, (S)-N-(cyanamido(2-(2-hydroxypropan-2-yl)thiazol-5-yl)(oxo)-λ^6-sulfaneylidene)-2-(2,6-diisopropyl-4-(naphthalen-2-yl)phenyl)acetamide]", "values": [{"measurement": "IC50", "setting": "[2]; [7]", "result": "5 to 30", "unit": "µM"}]}
{"molecule": "COc1ccc(C(C)(C)O)cc1S(N)(=O)=NC(=O)Cc1c(C(C)C)cc(C#N)cc1C(C)C", "note": "(racemic) [Example 388, (R) and (S)—N-(amino(5-(2-hydroxypropan-2-yl)-2-methoxyphenyl)(oxo)-λ^6-sulfaneylidene)-2-(4-cyano-2,6-diisopropylphenyl)acetamide]", "values": [{"measurement": "IC50", "setting": "[2]; Homo sapiens, THP-1, Table B2, 2% fetal bovine serum, cells printed as numeric bound, read-out: hTHP-1 IC50 (Average IC50 of compounds in hTHP-1 assay)", "result": "> 30", "unit": "µM"}]}
{"molecule": "COCc1cc(C(C)C)c(CC(=O)N=S(N)(=O)c2cc(C(C)(C)O)cs2)c(C(C)C)c1", "note": "(single isomer, unassigned) [Example 157, (R) or (S)-N-(amino(4-(2-hydroxypropan-2-yl)thiophen-2-yl)(oxo)-λ^6-sulfaneylidene)-2-(2,6-diisopropyl-4-(methoxymethyl)phenyl)acetamide]", "values": [{"measurement": "IC50", "setting": "[2]; [9]", "result": "0.008 to 0.04", "unit": "µM"}]}
{"molecule": "Cc1nc(C(C)(C)O)sc1S(N)(=O)=NC(=O)Cc1c(C(C)C)cc(OC(F)F)cc1C(C)C", "note": "(single isomer, unassigned) [Example 84, (S)- or (R)-2-(4-(difluoromethoxy)-2,6-diisopropylphenyl)-N-(2-(2-hydroxypropan-2-yl)-4-methylthiazol-5-ylsulfonimidoyl)acetamide]", "values": [{"measurement": "IC50", "setting": "[2]; [9]", "result": "0.04 to 0.2", "unit": "µM"}]}
{"molecule": "CC(C)(O)c1ncc(S(N)(=O)=NC(=O)Cc2cc3c(c4c2CCC4)CCC3)s1", "note": "(centres unmarked) [Example 242, N-(amino(2-(2-hydroxypropan-2-yl)thiazol-5-yl)(oxo)-λ^6-sulfaneylidene)-2-(1,2,3,6,7,8-hexahydro-as-indacen-4-yl)acetamide]", "values": [{"measurement": "IC50", "setting": "[2]; [8]", "result": "> 30", "unit": "µM"}]}
{"molecule": "CC(C)c1cc2c(c(C(C)C)c1CC(=O)N=S(N)(=O)c1cccc(C(C)(C)O)c1)COC2", "note": "(centres unmarked) [Example 266, N-(amino (3-(2-hydroxypropan-2-yl)phenyl)(oxo)-λ^6-sulfaneylidene)-2-(4,6-diisopropyl-1,3-dihydroisobenzofuran-5-yl)acetamide]", "values": [{"measurement": "IC50", "setting": "[2]; [7]", "result": "1 to 5", "unit": "µM"}]}
